A short description of assay [1]: Displacement of [3H]SCH23390 from dopamine D1 like receptor in rat brain homogenates. In kind it is tissue-based.
Assay [2] can be described thus: Displacement of [3H]Spiperone from dopamine D2 like receptor in rat brain homogenates. It counts as tissue-based. In general terms: Displacement assays read how much labelled ligand stays bound in the presence of the test substance.
The species entered for the next assay is Rattus norvegicus. The assay can be described thus: Selectivity ratio of Ki for dopamine D1 like receptor in rat brain homogenates to Ki for dopamine D3 receptor in rat brain homogenates. In kind it is tissue-based.
The target in assay [3] is D(3) dopamine receptor (Homo sapiens, UniProt P35462). The assay can be described thus: Agonist activity at human dopamine D3 receptor expressed in CHO cells by mitogenesis assay. It counts as functional, cell-based.
Assay [4] concerns the target D(3) dopamine receptor (Rattus norvegicus, UniProt P19020). The assay is described as follows: Displacement of [3H]-R(+)-7-OHDPAT from dopamine D3 receptor in rat brain homogenates. In kind it is tissue-based.
A short description of assay [5]: Selectivity ratio of dopamine D2 receptor to dopamine D3 receptor.
A short description of assay [6]: Selectivity ratio of dopamine D1 like receptor to dopamine D3 receptor.

As usually defined, the Ki is the equilibrium dissociation constant of an inhibitor or competing ligand from its target. Low values mean a stronger hold on the target, high ones a looser hold on the target. As a reminder, the EC50 is the concentration that produces a half-maximal response. Higher therefore signals a less potent agent.

Chain of D(3) dopamine receptor (Homo sapiens, UniProt P35462) (P35462 whole entry): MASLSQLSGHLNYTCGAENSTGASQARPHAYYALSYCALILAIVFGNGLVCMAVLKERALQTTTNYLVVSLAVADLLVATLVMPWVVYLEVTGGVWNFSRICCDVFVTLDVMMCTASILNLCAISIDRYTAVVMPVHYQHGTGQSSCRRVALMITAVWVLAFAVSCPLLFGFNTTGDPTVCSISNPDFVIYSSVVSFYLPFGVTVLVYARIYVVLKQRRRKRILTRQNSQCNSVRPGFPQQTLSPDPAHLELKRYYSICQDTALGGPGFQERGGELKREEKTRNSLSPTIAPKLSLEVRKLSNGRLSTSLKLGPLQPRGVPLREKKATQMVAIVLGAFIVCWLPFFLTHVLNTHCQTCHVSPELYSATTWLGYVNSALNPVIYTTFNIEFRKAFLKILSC
Chain of D(3) dopamine receptor (Rattus norvegicus, UniProt P19020) (P19020 whole entry): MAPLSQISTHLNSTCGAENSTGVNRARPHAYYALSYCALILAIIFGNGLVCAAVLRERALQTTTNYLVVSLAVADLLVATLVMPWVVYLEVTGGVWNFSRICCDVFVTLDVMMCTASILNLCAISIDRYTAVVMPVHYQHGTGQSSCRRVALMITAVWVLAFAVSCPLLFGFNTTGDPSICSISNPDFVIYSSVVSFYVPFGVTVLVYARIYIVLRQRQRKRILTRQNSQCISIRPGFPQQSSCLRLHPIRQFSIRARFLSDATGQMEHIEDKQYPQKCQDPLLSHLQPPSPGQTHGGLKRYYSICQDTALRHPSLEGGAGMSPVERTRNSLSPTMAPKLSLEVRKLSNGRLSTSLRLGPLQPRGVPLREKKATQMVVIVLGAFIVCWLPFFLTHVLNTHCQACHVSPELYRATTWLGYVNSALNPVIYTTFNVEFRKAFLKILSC

For `CCCN(CC[C@H]1CC[C@H](NS(=O)(=O)c2cccnc2Cl)CC1)[C@H]1CCc2nc(N)sc2C1`, the figures for the inhibitory constant (Ki) (in assay [1]; in assay [2]; at D(3) dopamine receptor [4]) were 17400 nM, 170 nM and 0.38 nM, respectively. Further, the Ratio Ki in the assay listed under Rattus norvegicus came to 46300. Besides, the midpoint of the response at D(3) dopamine receptor [3], the EC50, lay at 1.5 nM.

Regarding `CCCN(CCN1CCN(c2ccc(-c3ccccc3)cc2)CC1)[C@H]1CCc2nc(N)sc2C1`, the Selectivity ratio was 100 in assay [5] and over 1000 in assay [6].

With `CCCN(CC[C@H]1CC[C@H](NC(=O)c2cccc(-c3noc(C)n3)c2)CC1)[C@H]1CCc2nc(N)sc2C1`, the results for the Ki (in assay [1]; in assay [2]; at D(3) dopamine receptor [4]) were 9940 nM, 359 nM and 0.73 nM, respectively. For the same molecule, the Ratio Ki in the assay listed under Rattus norvegicus was determined as 13700. In addition, the response at D(3) dopamine receptor [3] was half-maximal at 4.3 nM (EC50).

Source of the values: ChEMBL document CHEMBL2146442, “High-affinity and selective dopamine D₃ receptor full agonists” (Bioorg Med Chem Lett, 2012).
